The target of one series is GST-Bcl-2 (Homo sapiens (Human), UniProt P10415). Briefly: Time Resolved-Fluorescence Resonance Energy Transfer (TR-FRET) Bcl-2 binding assay. The note with it: GST-Bcl-2 1 nM, F-Bak peptide probe 100 nM, Tb-anti-GST 1 nM; 3 hours at room temperature; < means below limit of detection. Background: Time-resolved FRET reads energy transfer from a long-lived donor to a nearby acceptor.

Series [1] concerns RS4;11 cells. Briefly: RS4;11 cell viability assay. In kind it is cell-based. The note with it: 10% human serum, 48 hours, CellTiter Glo. Background: In ATP-based viability assays light output follows the ATP content of the culture.
Procedure: Cell cytotoxicity EC50 values were assessed using CellTiter Glo (Promega) according to the manufacturer's recommendations. The EC50 values were determined as a percentage of viable cells following treatment compared to the untreated control cells.
In series [2] the test system is RS4;11 cells. The note with it: Blood, 2008, Vol. 111, 2300-2309; cited from earlier work.
The nature of series [3]: stability of coupling product during workup and chromatography, monitored by HPLC/MS. In kind it is physicochemical. The note with it: peak disappeared during workup and chromatography. The method, then: Specifically, this was discovered by the inventors in the following compound preparation. The intermediate structure F, that directly precedes the final product of the unstable compound, was prepared according to the route below. All intermediates A-F were stable and isolable using techniques known to those skilled in the art.
Intermediate F, shown in the scheme above, was reacted with intermediate G using standard coupling conditions that are known to those skilled in the art. The reaction mixture was analyzed via HPLC/MS to monitor the formation of a peak corresponding to the compound H. While this peak formed within hours of initiating the reaction below, the peak progressively disappeared during workup and chromatography, until it no longer was present. The lack of stability of the putative compound originates from the position of the nitrogen within the fused ring-system described above. This position, which is adjacent to the oxygen-bearing carbon in the 5-substituted-1H-pyrrolo[2,3-c]pyridine ring system shown below and described above, makes the compound H unstable.

pEC50, pKi: −log10 of the molar value.

Sequence of GST-Bcl-2 (P10415 whole entry): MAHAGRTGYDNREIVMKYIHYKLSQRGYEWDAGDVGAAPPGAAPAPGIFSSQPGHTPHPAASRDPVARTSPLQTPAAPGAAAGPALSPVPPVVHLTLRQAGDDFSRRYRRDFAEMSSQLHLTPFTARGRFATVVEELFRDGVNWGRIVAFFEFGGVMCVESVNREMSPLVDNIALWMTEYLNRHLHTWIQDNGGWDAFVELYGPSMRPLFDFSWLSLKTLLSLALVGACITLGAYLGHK
Procedure for GST-Bcl-2: Determination of the utility of compounds having Formula (I) as binders to and inhibitors of anti-apoptotic Bcl-2 proteins was performed using the Time Resolved-Fluorescence Resonance Energy Transfer (TR-FRET) Assay.
Representative compounds were serially diluted in dimethyl sulfoxide (DMSO) starting at 50 μM (2× starting concentration; 10% DMSO) and 10 μL were transferred into a 384-well plate. The samples are then mixed on a shaker for 1 minute and incubated for an additional 3 hours at room temperature. For each assay, the probe/antibody and protein/probe/antibody were included on each assay plate as negative and positive controls, respectively.
The samples were then mixed on a shaker for 1 minute and incubated for an additional 3 hours at room temperature. For each assay, the probe/antibody and protein/probe/antibody were included on each assay plate as negative and positive controls, respectively.

Broadly, the pKi is the negative decadic logarithm of the Ki, by convention in mol/L. A higher pKi goes with a small Ki. For orientation: pEC50 means the EC50 on a negative log10 scale, so that one unit is a factor of ten. As for “4-(4-{[2-(4-chlorophenyl)-4,4-dimethylcyclohex-1-en-1-yl]methyl}piperazin-1-yl)-N-({3-(pentafluoro-lambda-6-sulfanyl)-4-[(tetrahydro-2H-pyran-4-ylmethyl)amino]phenyl}sulfonyl)-2-(1H-pyrrolo[2,3-b]pyridin-5-yloxy)benzamide [Example 233]”, the pKi on GST-Bcl-2 is 8.78. Besides, in the series on RS4;11 cells [1], the pEC50 is < 6.00. Take “4-(4-{[2-(4-chlorophenyl)-4,4-dimethylcyclohex-1-en-1-yl]methyl}piperazin-1-yl)-N-[(4-{[(3R)-1-(2-fluoroethyl)pyrrolidin-3-yl]amino}-3-nitrophenyl)sulfonyl]-2-(1H-pyrrolo[2,b]pyridin-5-yloxy)benzamide [Example 183]”: on GST-Bcl-2, the negative-log Ki (pKi) was > 11.00. In the series on RS4;11 cells [1], this compound had a pEC50 of 7.76. As to “4-(4-{[2-(4-chlorophenyl)-4,4-dimethylcyclohex-1-en-1-yl]methyl}piperazin-1-yl)-N-{[4-({[(E)-4-hydroxy-1-adamantyl]methyl}amino)-3-nitrophenyl]sulfonyl}-2-(1H-pyrrolo[2,3-b]pyridin-5-yloxy)benzamide [Example 199]”, the negative-log Ki (pKi) on GST-Bcl-2 was > 11.00. The compound further had a pEC50 in the series on RS4;11 cells [1] of 8.30. On to “4-(4-{[2-(4-chlorophenyl)-4,4-dimethylcyclohex-1-en-1-yl]methyl}piperazin-1-yl)-N-{[4-({[(Z)-4-hydroxy-1-adamantyl]methyl}amino)-3-nitrophenyl]sulfonyl}-2-(1H-pyrrolo[2,3-b]pyridin-5-yloxy)benzamide [Example 200]”, for which the negative-log Ki (pKi) at GST-Bcl-2 was > 11.00. For the same compound, in the series with RS4;11 cells [1], the negative-log EC50 (pEC50) was 7.96. In turn, “4-(4-{[2-(4-chlorophenyl)-4,4-dimethylcyclohex-1-en-1-yl]methyl}piperazin-1-yl)-N-{[4-({[cis-3-morpholin-4-ylcyclopentyl]methyl}amino)-3-nitrophenyl]sulfonyl}-2-(1H-pyrrolo[2,3-b]pyridin-5-yloxy)benzamide [Example 188]” had a pEC50 with RS4;11 cells [1] of 7.79. Take `CN(C)CC[C@H](CSc1ccccc1)Nc1ccc(S(=O)(=O)NC(=O)c2ccc(N3CCN(Cc4ccccc4-c4ccc(Cl)cc4)CC3)cc2)cc1[N+](=O)[O-]` [ABT-737, N-(4-(4-((4′-chloro(1,1′-biphenyl)-2-yl)methyl)piperazin-1-yl)benzoyl)-4-(((1R)-3-(dimethylamino)-1-((phenylsulfanyl)methyl)propyl)amino)-3-nitrobenzenesulfonamide]: the “sensitivity of RS4; 11 cells to the inhibitor” value in the series with RS4;11 cells [2] is reported as “sensitive”. The compound `CC1(C)CCC(CN2CCN(c3ccc(C(=O)NS(=O)(=O)c4ccc(OCC5COCCN5C5CCOCC5)c([N+](=O)[O-])c4)c(Oc4cnc5[nH]ccc5c4)c3)CC2)=C(c2ccc(Cl)cc2)C1` (stereo not drawn) [Example 104, 4-(4-{[2-(4-chlorophenyl)-4,4-dimethylcyclohex-1-en-1-yl]methyl}piperazin-1-yl)-N({3-nitro-4-[(4-tetrahydro-2H-pyran-4-ylmorpholin-3-yl)methoxy]phenyl}sulfonyl)-2-(1H-pyrrolo[2,3-b]pyridin-5-yloxy)benzamide] had a pKi at GST-Bcl-2 of 10.80. For the same compound, the pEC50 with RS4;11 cells [1] was 7.15. `CC1(C)CCC(CN2CCN(c3ccc(C(=O)NS(=O)(=O)c4ccc(NC[C@H]5CC[C@@](C)(O)CC5)c([N+](=O)[O-])c4)c(Oc4cnc5[nH]ccc5c4)c3)CC2)=C(c2ccc(Cl)cc2)C1` [Example 337, 4-(4-{[2-(4-chlorophenyl)-4,4-dimethylcyclohex-1-en-1-yl]methyl}piperazin-1-yl)-N-[(4-{[(trans-4-hydroxy-4-methylcyclohexyl)methyl]amino}-3-nitrophenyl)sulfonyl]-2-(1H-pyrrolo[2,3-b]pyridin-5-yloxy)benzamide]: in the series on RS4;11 cells [1], the negative logarithm of the EC50 (pEC50) is 8.75.

In the case of `C[C@]1(O)CC[C@@H](COc2ncc(S(=O)(=O)NC(=O)c3ccc(N4CCN(CC5=C(c6ccc(Cl)cc6)CC6(CC5)CC6)CC4)cc3Oc3cnc4[nH]ccc4c3)cc2Cl)CC1` [Example 341, N-({5-chloro-6-[(trans-4-hydroxy-4-methylcyclohexyl)methoxy]pyridin-3-yl}sulfonyl)-4-(4-{[5-(4-chlorophenyl)spiro[2.5]oct-5-en-6-yl]methyl}piperazin-1-yl)-2-(1H-pyrrolo[2,3-b]pyridin-5-yloxy)benzamide], at GST-Bcl-2, the pKi is > 11.00. For the same compound, the pEC50 in the series with RS4;11 cells [1] is 7.50. Take `CC1(C)CCC(CN2CCN(c3ccc(C(=O)NS(=O)(=O)c4cnc(OC[C@]5(F)CC[C@@H](O)CC5)c(Cl)c4)c(Oc4cnc5[nH]ccc5c4)c3)CC2)=C(c2ccc(Cl)cc2)C1` [Example 350, N-({5-chloro-6-[(cis-1-fluoro-4-hydroxycyclohexyl)methoxy]pyridin-3-yl}sulfonyl)-4-(4-{[2-(4-chlorophenyl)-4,4-dimethylcyclohex-1-en-1-yl]methyl}piperazin-1-yl)-2-(1H-pyrrolo[2,3-b]pyridin-5-yloxy)benzamide]: the negative-log Ki (pKi) on GST-Bcl-2 is > 11.00. Same read-out and setting: next, `CCC1(O)CCC(CNc2ccc(S(=O)(=O)NC(=O)c3ccc(N4CCN(CC5=C(c6ccc(Cl)cc6)CC(C)(C)CC5)CC4)cc3Oc3cnc4[nH]ccc4c3)cc2[N+](=O)[O-])CC1` (stereo not drawn) [Example 358, 4-(4-{[2-(4-chlorophenyl)-4,4-dimethylcyclohex-1-en-1-yl]methyl}piperazin-1-yl)-N-[(4-{[(trans-4-ethyl-4-hydroxycyclohexyl)methyl]amino}-3-nitrophenyl)sulfonyl]-2-(1H-pyrrolo[2,3-b]pyridin-5-yloxy)benzamide]: > 11.00; `CC[C@]1(O)CC[C@H](CNc2ccc(S(=O)(=O)NC(=O)c3ccc(N4CCN(CC5=C(c6ccc(Cl)cc6)CC(C)(C)CC5)CC4)cc3Oc3cnc4[nH]ccc4c3)cc2[N+](=O)[O-])CC1` [Example 359, 4-(4-{[2-(4-chlorophenyl)-4,4-dimethylcyclohex-1-en-1-yl]methyl}piperazin-1-yl)-N-[(4-{[(cis-4-ethyl-4-hydroxycyclohexyl)methyl]amino}-3-nitrophenyl)sulfonyl]-2-(1H-pyrrolo[2,3-b]pyridin-5-yloxy)benzamide]: > 11.00. Turning to `CC1(C)CCC(CN2CCN(c3ccc(C(=O)NS(=O)(=O)c4ccc(OC[C@H]5CC[C@@](C)(O)CC5)c(Cl)c4)c(Oc4cnc5[nH]ccc5c4)c3)CC2)=C(c2ccc(Cl)cc2)C1` [Example 362, N-({3-chloro-4-[(trans-4-hydroxy-4-methylcyclohexyl)methoxy]phenyl}sulfonyl)-4-(4-{[2-(4-chlorophenyl)-4,4-dimethylcyclohex-1-en-1-yl]methyl}piperazin-1-yl)-2-(1H-pyrrolo[2,3-b]pyridin-5-yloxy)benzamide], the pKi at GST-Bcl-2 was 10.80. Besides, the pEC50 in the series with RS4;11 cells [1] was 7.50. Turning to `CC1(C)CCC(CN2CCN(c3ccc(C(=O)NS(=O)(=O)c4cnc(NC[C@H]5CC[C@@](C)(O)CC5)c([N+](=O)[O-])c4)c(Oc4cnc5[nH]ccc5c4)c3)CC2)=C(c2ccc(Cl)cc2)C1` [Example 371, 4-(4-{[2-(4-chlorophenyl)-4,4-dimethylcyclohex-1-en-1-yl]methyl}piperazin-1-yl)-N-[(6-{[(trans-4-hydroxy-4-methylcyclohexyl)methyl]amino}-5-nitropyridin-3-yl)sulfonyl]-2-(1H-pyrrolo[2,3-b]pyridin-5-yloxy)benzamide], the negative logarithm of the Ki (pKi) at GST-Bcl-2 was > 12.00. As for `CC1(C)CCC(CN2CCN(c3ccc(C(=O)NS(=O)(=O)c4cnc(NC[C@H]5CC[C@](C)(O)CC5)c([N+](=O)[O-])c4)c(Oc4cnc5[nH]ccc5c4)c3)CC2)=C(c2ccc(Cl)cc2)C1` [Example 376, 4-(4-{[2-(4-chlorophenyl)-4,4-dimethylcyclohex-1-en-1-yl]methyl}piperazin-1-yl)-N-[(6-{[(cis-4-hydroxy-4-methylcyclohexyl)methyl]amino}-5-nitropyridin-3-yl)sulfonyl]-2-(1H-pyrrolo[2,3-b]pyridin-5-yloxy)benzamide], on GST-Bcl-2, the negative logarithm of the Ki (pKi) is > 12.00. `COC1(C)CCC(c2ccc(Cl)cc2)=C(CN2CCN(c3ccc(C(=O)NS(=O)(=O)c4ccc(NC[C@H]5CC[C@@](C)(O)CC5)c([N+](=O)[O-])c4)c(Oc4cnc5[nH]ccc5c4)c3)CC2)C1` (stereo partly drawn) [Example 377, 4-(4-{[2-(4-chlorophenyl)-5-methoxy-5-methylcyclohex-1-en-1-yl]methyl}piperazin-1-yl)-N-[(4-{[(trans-4-hydroxy-4-methylcyclohexyl)methyl]amino}-3-nitrophenyl)sulfonyl]-2-(1H-pyrrolo[2,3-b]pyridin-5-yloxy)benzamide]: on GST-Bcl-2, the negative-log Ki (pKi) is > 12.00. Take `CC1(C)CCC(CN2CCN(c3ccc(C(=O)NS(=O)(=O)c4ccc(NCC5CCOCC5)c([N+](=O)[O-])c4)c(Oc4cc5cc[nH]c5cn4)c3)CC2)=C(c2ccc(Cl)cc2)C1` [compound H]: the stability entry in series [3] is given as “unstable”.

The record behind these values is patent US9174982B2, “Apoptosis-inducing agents for the treatment of cancer and immune and autoimmune diseases” (AbbVie Inc., priority 2009, dated 2015).
